Values joined by “and” are separate entries in the source; they are usually repeats but may differ in a detail not shown here. Equal entries are not always repeated.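 Results reflect a 48-hour exposure of cells in 96-well plates to compound at five concentrations. GI50 = concentration required for 50% inhibition of growth. Definition used: TGI = concentration required for complete inhibition of growth.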
Key:
Experiment in all cases: inhibition of tumour cell growth, NCI panel, 48 h
HCC-2998 colon = test system: HCC-2998 colon
UACC-257 melanoma = test system: UACC-257 melanoma
OVCAR-3 ovarian = test system: OVCAR-3 ovarian
SNB-75 CNS = test system: SNB-75 CNS
HOP-92 NSCLC = test system: HOP-92 NSCLC
UACC-62 melanoma = test system: UACC-62 melanoma
M14 melanoma = test system: M14 melanoma
NCI-H522 lung = test system: NCI-H522 lung
A549 NSCLC = test system: A549 NSCLC
SK-MEL-5 melanoma = test system: SK-MEL-5 melanoma

Row | SMILES | GI50 (HCC-2998 colon) [µM] | TGI (HCC-2998 colon) [µM] | GI50 (UACC-257 melanoma) [µM] | TGI (UACC-257 melanoma) [µM] | GI50 (OVCAR-3 ovarian) [µM] | TGI (OVCAR-3 ovarian) | GI50 (SNB-75 CNS) [µM] | TGI (SNB-75 CNS) [µM] | GI50 (HOP-92 NSCLC) [µM] | TGI (HOP-92 NSCLC) [µM] | GI50 (UACC-62 melanoma) [µM] | TGI (UACC-62 melanoma) | GI50 (M14 melanoma) [µM] | TGI (M14 melanoma) [µM] | GI50 (NCI-H522 lung) [µM] | TGI (NCI-H522 lung) [µM] | GI50 (A549 NSCLC) [µM] | TGI (A549 NSCLC) [µM] | GI50 (SK-MEL-5 melanoma) [µM] | TGI (SK-MEL-5 melanoma)
1 | CC(=O)OC1CCC2(C)C(=CCC3C4CC(CN5CC5)C(=O)C4(C)CCC32)C1 (centres undefined) | 14 | 30.4 | 12.9 | 26.4 | 4.63 | 14.8 µM | 10.8 | 22.7 | 11.3 | 24.1 | 11.7 | 24.6 µM | 14.2 | 31.7 | 1.52 | 3.26 | 15.3 | 42.2 | 12.7 | 25.9 µM
2 | Brc1ccc2c(c1)-c1ccccc1C1=NCCN12 | 1.3 | 8.49 | 1.59 | 4.51 | 2.08 | 8.04 µM | 1.53 | 4.15 | 1.33 | 5.74 | 1.69 | 3.24 µM | 1.48 | 3.16 | 0.762 | 2.75 | 0.548 | 3.58 | 1.52 | 3.24 µM
3 | CS(=O)(=O)Nc1ccc(Nc2c3ccccc3nc3cc(Cl)ccc23)cc1 | 7.57 | 22.9 | 3.33 | 16.7 | 7.28 | 21.5 µM | 1.29 | 15.9 | 0.334 | 4.7 | 0.988 | 12.9 µM | 0.812 | 15.1 | 2.33 | 15.4 | 0.188 | 12.1 | 1.13 | 2.62 µM
4 | CCCCCCCCCCCCCCCC(=O)NCC(OCC)OCC |  | > 100 |  | > 100 |  | > 100 µM |  | > 100 |  | > 100 |  | > 100 µM |  | > 100 |  | > 100 |  | > 100 |  | > 100 µM
5 | CC(C)=NO.CC(C)=NO.CC(C)=NO.CC(C)=NO.[Ti] | > 100 | > 100 | > 100 | > 100 | > 100 | > 100 µM | > 100 | > 100 | > 100 | > 100 | > 100 | > 100 µM | > 100 | > 100 | > 100 | > 100 | > 100 | > 100 | > 100 | > 100 µM
6 | OCCn1c(-c2ccncc2)c(-c2ccc(F)cc2)c2ncccc21 | > 25 | > 25 | > 25 | > 25 | > 25 | > 25 µM | > 25 | > 25 | 9.5 | > 25 | > 25 | > 25 µM | > 25 | > 25 | > 25 | > 25 | > 25 | > 25 | > 25 | > 25 µM
7 | CCOC(=O)c1c(/C=N\Nc2ccccc2)nc2ccccc2c1-c1ccccc1 |  | 77 |  | > 100 |  | > 100 µM |  | > 100 |  | > 100 |  | 76.9 µM |  | > 100 |  | 67.1 |  | > 100 |  | 85.6 µM
8 | COc1cc(/C=C/C(=O)c2c(-c3ccc(Cl)cc3)nc3sc(C)nn23)cc(OC)c1OC | > 100 | > 100 | 16 | > 100 | 35.7 | > 100 µM | 12.8 | 33.7 | 3.48 | 25.1 | 5.15 | > 100 µM | 55.2 | > 100 | 2.94 | 8.8 | 49.5 | > 100 | 3.1 | 15.6 µM
9 | COc1cc([C@H]2c3cc(O)c(OC)cc3C[C@]3(O)[C@@H]2CO[C@@H]3O)ccc1O |  | > 100 |  | > 100 |  | > 100 µM |  | > 100 |  | > 100 |  | > 100 µM |  | > 100 |  | > 100 |  | > 100 |  | > 100 µM
10 | CC(C)(CCc1nc2ccccc2[nH]1)C(=O)O |  | > 100 |  | > 100 |  | > 100 µM |  | > 100 |  | > 100 |  | > 100 µM |  | > 100 |  | > 100 |  | > 100 |  | > 100 µM
11 | CCc1c[nH]c2ncnc(N3CC[C@](N)(CNC(=O)c4ccc(F)cc4F)C3)c12 | 11.5 | > 100 | 9.22 | > 100 | 11.4 | > 100 µM | 0.0768 | 7.97 | 0.23 | 7.57 | 3.33 | 45.1 µM | 15.6 | > 100 | 30.1 | > 100 | 7.36 | > 95.5 | 15.8 | > 52.5 µM
12 | O=C(c1ccccc1)c1ccc(N2C(=O)C3C4c5ccccc5C(/C=C/C(=O)c5ccccn5)(c5ccccc54)C3C2=O)cc1 (centres undefined) | 1.72 | 3.34 | 2.44 | 46.6 | 1.83 | 3.85 µM | 0.94 | > 100 | 1.8 | 7.13 | 2.21 | 7.44 µM | 3.4 | > 100 | 2.28 | 6.82 | 2.87 | > 100 | 2.36 | 5.71 µM
13 | CCOC(=O)C1=C(O)c2c(OC)ccc(OC)c2C(=O)C1=O |  | > 100 |  | > 100 |  | > 100 µM |  | > 100 |  | > 100 |  | > 100 µM |  | > 100 |  | > 100 |  | > 100 |  | > 100 µM
14 | CCCNc1ncnc2c1cnn2C |  | > 100 |  | > 100 |  | > 100 µM |  | > 100 |  | > 100 |  | > 100 µM |  | > 100 |  | > 100 |  | > 100 |  | > 100 µM
15 | NC1CC(n2ccc(=O)[nH]c2=O)OC1C(O)CO (centres undefined) |  | > 100 |  | > 100 |  | > 100 µM |  | > 100 |  | > 100 |  | > 100 µM |  | > 100 |  | > 100 |  | > 100 |  | > 100 µM
16 | CC(C)C12CCC3(CCC4C(C)(C(=O)O)CCCC4(C)C3C1)C(CN)C2 (centres undefined) |  | 36.2 |  | > 100 |  | > 100 µM |  | > 100 |  | > 100 |  | > 100 µM |  | > 100 |  | 70.3 |  | > 100 |  | 86.2 µM
17 | Oc1ccc(/C=N/Nc2nnc(N/N=C/c3ccc(O)cc3O)c3ccccc23)c(O)c1 | 0.446 | 2.42 | 1.84 | 7.73 | 0.385 | 0.489 µM and 1.9 µM | 0.361 | 1.44 | 0.496 | 2.65 | 0.318 | 0.602 µM and 1.58 µM | 0.358 | 1.53 | 0.253 | 0.799 | 0.67 | > 28.7 | 0.413 | 0.744 µM and 3.19 µM
18 | O=c1cccccc1[O-].O=c1cccccc1[O-].O=c1cccccc1[O-].[Dy+3] |  | > 100 |  | > 100 |  | 41.1 µM |  | 52.1 |  | > 100 |  | > 100 µM |  | > 100 |  | > 100 |  | > 100 |  | 72.3 µM
19 | Cn1ncc2c(c1=O)Nc1ccccc1S2(=O)=O |  | > 100 |  | > 100 |  | > 100 µM |  | > 100 |  | > 100 |  | > 100 µM |  | > 100 |  | > 100 |  | > 100 |  | > 100 µM
20 | CCOC(=O)/C(=C/c1ccc[nH]1)P(=O)(OCC)OCC |  | > 100 |  | > 100 |  | > 100 µM |  | > 100 |  | > 100 |  | > 100 µM |  | > 100 |  | > 100 |  | > 100 |  | > 100 µM
21 | CC(C)c1nc(Cl)c(Cl)c(Cl)n1 |  | 15.7 |  | 17.8 |  | 8.2 µM |  | 25.8 |  | 14.2 |  | 23.1 µM |  | 19 |  | 8.64 |  | > 41.3 |  | 30.9 µM
22 | COc1cc2c(cc1OCCCN1CCN(CCCn3c4ccccc4c4ccccc43)CC1)N=C[C@@H]1CCCN1C2=O | 0.12 | 0.37 | 0.209 | 0.461 | 0.0669 | 1.16 µM | < 0.0395 | 0.102 | 0.0283 | 0.173 | 0.162 | 0.347 µM | 0.211 | 0.656 |  | 0.182 | 0.294 | 1.28 | 0.202 | 0.472 µM
23 | O=[N+]([O-])C1(CO)COC(CCc2ccccc2)OC1 (centres undefined) |  | > 100 |  | > 100 |  | > 100 µM |  | > 100 |  | > 100 |  | > 100 µM |  | > 100 |  | > 100 |  | > 100 |  | > 100 µM
24 | O=C1COc2c(CCNCCN(C(=O)CCNCCc3ccc(Cl)c(Cl)c3)C3CCCCC3)ccc(O)c2N1 | 18.7 | 35.1 | 16.9 | 33 | 16.8 | 32.1 µM | 3.65 | 19.4 | < 0.0353 | 17.5 | 15.5 | 30.4 µM | 16.6 | 31.8 | 15.2 | 32.3 | 21.8 | 44.8 | 15.6 | 29.4 µM
